Reference: article PMC7215373, “Design, Synthesis, and Anticancer Evaluation of Novel Indole Derivatives of Ursolic Acid as Potential Topoisomerase II Inhibitors” (International Journal of Molecular Sciences, 2020)

Columns and labels:
[1] = system: SMMC-7721 cells; assay: MTT cytotoxicity assay, SMMC-7721; type: cell-based, human; conditions: 48 h exposure
Description: (§1) The in vitro cytotoxic activities of synthesized compounds were evaluated against two human hepatocarcinoma cell lines (SMMC-7721 and HepG2) and the human normal hepatocyte cell line (LO2) via MTT assay. All tested compounds were dissolved in DMSO and the stock solutions were diluted by DMEM medium before treatment of the cultured cells. […] Cell lines were obtained from American Tissue Culture Collection (ATCC). Briefly, different tumor cells were grown in DMEM medium supplemented with 10% fetal bovine serum, penicillin (100 U/mL), and streptomycin (50 μg/mL). Cells were harvested at log phase of growth and seeded in 96-well plates (100 μL/well at a density of 2 × 10^5 cells/mL). After 24 h incubation at 37 °C and 5% CO2 to allow cell attachment, cultures were exposed to various concentrations of the isolated compounds for 48 h. Finally, MTT solution (2.5 mg/mL in PBS) was added (40 μL/well). Plates were further incubated for 4 h at 37 °C, and the formazan crystals formed were dissolved by adding 150 μL/well of DMSO. Absorption at 570 nm was measured with an ELISA plate reader. […] Doxorubicin, camptothecin, and etoposide (VP-16) were co-assayed as positive controls.

[2] = system: SMMC-7721 cells; assay: AO/EB double staining assay; type: cell-based, human; conditions: 0.3, 0.6 and 1.2 μM, 48 h
Source text: Apoptosis induced by compound 5f was further evaluated using acridine orange / ethidium bromide (AO/EB) double staining. AO, as a vital dye showing green fluorescence, can pass through cell membrane of living or dead cells, while EB only stains apoptotic or necrotic cells that have lost their integrity and appear red fluorescence. Therefore, the normal cells will be stained only by AO with bright green while apoptotic cells will be stained by AO and EB with red-orange [26, 27].
SMMC-7721 cells were seeded into six-well plates and incubated at 37 °C with 5% CO2 for 24 h. Then, the cells were exposed to different concentrations of compound 5f (0, 0.3, 0.6, and 1.2 μM) for 48 h. After that, 10 μL of each fluorescent dye cantaining AO and EB (10 μg/mL) were added to each well in equal volumes respectively and incubated for 5 min in the dark. The cells were visualized through an inverted fluorescence microscope (Olympus 1X71 Inverted System Microscope, Olympus, Tokyo, Japan).

[3] = system: SMMC-7721 cells; assay: JC-1 mitochondrial membrane potential assay; type: cell-based, human; conditions: 24 h, control 1.29%
Description: It has been widely believed that intracellular ROS accumulation could decrease mitochondrial membrane potential (ΔΨm), which is a characteristic phenomenon of early apoptosis. To investigate the correlation between ΔΨm and apoptosis induced by compound 5f, the measurement of cells with decreased ΔΨm were carried out by JC-1 assay kit on the instructions of the manual.
The JC-1 mitochondrial membrane potential assay kit (Keygene Biotech., Nanjing, China) was employed to measure mitochondrial depolarization in SMMC-7721 cells. The fluorescence probe JC-1 was used to detect the change of mitochondrial membrane potential. Briefly, cells cultured in six-well plates after indicated treatments by compound 5f were incubated with an equal volume of JC-1 staining solution (5 μg/mL) at 37 °C for 20 min and rinsed twice with PBS. Mitochondrial membrane potentials were monitored by determining the relative amounts of dual emissions from mitochondrial JC-1 monomers or aggregates using flow cytometry (Becton-Dickinson FACSCalibur, Franklin Lakes, NJ, USA). Mitochondrial membrane depolarization is indicated by an increase in the percentage of cells with low ΔΨm (green fluorescence, lower right quadrant) compared with cells with high ΔΨm (red fluorescence, upper right quadrant).

[4] = biological target: T1, Human Topoisomerase IIα (Homo sapiens, UniProt P11388); assay: Topoisomerase II relaxation assay (supercoiled pBR322); type: biochemical
T1 construct: purchased USB, Affymetrix, Waltham, MA, USA
T1 sequence (P11388 whole entry): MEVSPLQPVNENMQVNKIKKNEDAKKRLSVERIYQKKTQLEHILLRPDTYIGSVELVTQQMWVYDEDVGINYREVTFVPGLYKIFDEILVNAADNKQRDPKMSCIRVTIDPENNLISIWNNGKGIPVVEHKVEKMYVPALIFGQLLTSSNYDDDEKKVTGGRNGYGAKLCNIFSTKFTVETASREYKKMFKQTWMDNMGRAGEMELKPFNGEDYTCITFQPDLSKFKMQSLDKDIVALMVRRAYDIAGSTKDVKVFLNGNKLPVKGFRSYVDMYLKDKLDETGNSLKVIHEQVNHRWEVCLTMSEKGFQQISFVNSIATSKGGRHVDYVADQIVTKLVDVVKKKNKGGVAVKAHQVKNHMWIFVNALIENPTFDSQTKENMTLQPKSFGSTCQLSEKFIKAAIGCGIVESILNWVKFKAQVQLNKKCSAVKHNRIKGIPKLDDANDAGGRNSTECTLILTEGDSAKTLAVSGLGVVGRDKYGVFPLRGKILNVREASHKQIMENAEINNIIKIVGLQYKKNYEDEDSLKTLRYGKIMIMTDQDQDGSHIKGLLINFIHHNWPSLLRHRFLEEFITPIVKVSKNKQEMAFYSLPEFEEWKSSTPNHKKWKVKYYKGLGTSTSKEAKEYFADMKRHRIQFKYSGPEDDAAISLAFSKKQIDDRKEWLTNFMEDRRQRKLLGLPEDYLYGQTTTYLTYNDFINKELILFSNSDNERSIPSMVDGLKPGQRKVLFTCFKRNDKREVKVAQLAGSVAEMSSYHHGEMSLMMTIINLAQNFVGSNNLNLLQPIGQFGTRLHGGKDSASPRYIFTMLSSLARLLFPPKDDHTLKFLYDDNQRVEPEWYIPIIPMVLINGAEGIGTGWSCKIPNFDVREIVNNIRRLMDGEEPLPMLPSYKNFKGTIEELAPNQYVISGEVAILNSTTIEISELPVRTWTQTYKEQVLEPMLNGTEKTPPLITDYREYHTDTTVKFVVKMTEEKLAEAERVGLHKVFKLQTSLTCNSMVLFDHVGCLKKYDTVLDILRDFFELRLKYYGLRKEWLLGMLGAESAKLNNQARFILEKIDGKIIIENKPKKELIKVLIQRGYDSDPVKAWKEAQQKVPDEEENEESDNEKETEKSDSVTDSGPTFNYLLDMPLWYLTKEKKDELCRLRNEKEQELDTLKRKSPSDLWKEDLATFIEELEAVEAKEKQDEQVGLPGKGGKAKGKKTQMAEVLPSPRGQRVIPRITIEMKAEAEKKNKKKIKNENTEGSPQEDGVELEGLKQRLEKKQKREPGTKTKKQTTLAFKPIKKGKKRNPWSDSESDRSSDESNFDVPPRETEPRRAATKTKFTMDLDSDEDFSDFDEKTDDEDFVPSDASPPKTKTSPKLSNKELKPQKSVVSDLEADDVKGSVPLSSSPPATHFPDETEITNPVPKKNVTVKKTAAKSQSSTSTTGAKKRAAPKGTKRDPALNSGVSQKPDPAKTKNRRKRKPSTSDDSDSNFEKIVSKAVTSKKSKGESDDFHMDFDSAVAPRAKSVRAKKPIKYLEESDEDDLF
Description: The effect of the tested compounds on Topo I and II activities were evaluated by Topo I/II relaxation assays. The reaction products, relaxed DNA could be distinguished from supercoiled DNA by gel electrophoresis and visualized using gel imaging system. Human Topoisomerase IIα activity was detected by measuring the relaxation of supercoiled pBR322 plasmid DNA [22]. […] For inhibition studies, the compounds were pre-incubated with human Topo IIα and DNA for 15 min. Compounds were used at the appropriate concentrations by dissolving in 2% (v/v) DMSO. DMSO didn't show detrimental effect on the enzyme activity at concentration up to 2% (v/v). Reaction mixture was incubated at 37 °C for 30 min and stopped by the addition of 7 mM EDTA. Reaction product was mixed with DNA loading dye and electrophoresed on 1% TAE-Agarose. The gel was stained with ethidium bromide (0.5 μg/mL) for 30 min, destained twice in 1× TAE buffer, and then visualized using a BIO-RAD Gel Doc XR+ System. Etoposide (VP-16) was co-assayed as a positive control.

[5] = system: LO2 cells; assay: MTT cytotoxicity assay, normal hepatocyte LO2; type: cell-based; conditions: Homo sapiens, L02, 48 h exposure, normal hepatocyte cell line
Description: as §1

Cc1ccc2[nH]c3c(c2c1)C[C@@]1(C)C(CC[C@]2(C)C1CC=C1C4[C@@H](C)[C@H](C)CC[C@]4(C(=O)NCCCN4CCN(C)CC4)CC[C@]12C)C3(C)C (stereo partly drawn) [5f, N-(3-(4-Methylpiperazin-1-yl)propyl)-5′-methyl-1′H-ursa-2,12-dieno[3,2-b]indol-28-carboxamide]
IC50 [1]: 0.56 ± 0.08 µM | IC50 ([1]; Homo sapiens, SMMC-7721, 48 h): ~1 µM | apoptosis by AO/EB staining (fluorescence microscopy) [2]: induced apoptosis | percentage of cells with low ΔΨm ([3]; 0.3 μM): 7.43% | percentage of cells with low ΔΨm ([3]; 0.6 μM): 16.28% | percentage of cells with low ΔΨm ([3]; 1.2 μM): 32.34% | inhibition at 20 µM ([4]; 20 μM compound, read-out: Topo II Inhibition (%) 20 μM): 43.2% | inhibition at 100 µM ([4]; 100 μM compound, read-out: Topo II Inhibition (%) 100 μM): 83.5% | IC50 [5]: 10.6 ± 0.52 µM
